According to publication PMC11493442, “Sensory-Motor Neuropathy in Mfn2 T105M Knock-in Mice and Its Reversal by a Novel Piperine-Derived Mitofusin Activator” (The Journal of Pharmacology and Experimental Therapeutics, 2024):
Like-named read-outs stand apart in the source and are kept apart here. Each block holds one compound with its values, some of them ahead of it.

Experiments:
[1] = system: mitofusins; set-up: method as in Zhang et al., 2022; details: ref Zhang et al., 2022; cited from earlier work
[2] = system: Mfn2 null MEF cells; experiment: Mitochondrial elongation (fusogenicity, mitochondrial aspect ratio) in Mfn2 null MEFs; type: cell-based, mouse
Description: Mitochondrial polarization based on tetramethyl rhodamine ester fluorescence and fusogenicity based on an increase in mitochondrial aspect ratio were measured in static confocal images of live cells using methods that we have extensively validated ([Franco et al., 2016], [2020]; [Rocha et al., 2018]; [Zhang et al., 2022]). As necessary, red, green, and blue brightness, or rarely contrast, were adjusted in individual confocal images prior to merging to enhance clarity. All adjustments were performed across the entire image.
Mitochondrial elongation was assessed in Mfn2 null MEF cells after treatment with compounds at concentrations ranging from 0.5 nM–10 μM in DMSO for 14 h. Mitochondria were stained with MitoTracker Orange, and nuclei were costained with Hoechst before confocal microscope imaging; at least three independent experiments were performed. Mitochondrial aspect ratio (length/width) of at least 10 cells was measured for each experiment using National Institutes of Health ImageJ. […] Concentration-response curves were generated using a sigmoidal model in Prism 8 software. EC50 and Emax values and their variances were calculated from interpolated data of all replicate experiments in a series.

[3] = Plasma PK in rats; type: in vivo, rat; details: oral administration
Description: Routine in vitro pharmacokinetic (PK) profiling of 8015 and its enantiomers (8015-P1 and 8015-P2) was performed at WuXi Apptec Co., Ltd. (Shanghai, China) using standard methods as described ([Dang et al., 2020], [2021]). In vivo PK profiling was performed by Frontage Laboratories (Exton PA, USA). The vehicle used for intravenous and oral PK studies was 12% sulfobutylether-β-cyclodextrin (SBE-β-CD; CyDex Pharmaceutical Inc., Lenexa KS, USA) in sterile water.

[4] = system: Mfn2 T105M KI mouse sciatic nerve axons; experiment: Ex vivo mitochondrial motility in sciatic nerve axons after oral dosing; details: 100 mg/kg by oral gavage
Description: (§1) Mitochondrial motility in neuronal processes of cultured reprogrammed human motor neurons ([Abernathy et al., 2017]; [Dang et al., 2023]), mouse DRG neurons transduced with adeno-Mito-DS-Red2, or axons of ex vivo mouse sciatic nerves stained with tetramethyl rhodamine ester was measured using time-lapse confocal microscopy on a Nikon Eclipse Ti2 confocal microscope as described ([Franco et al., 2016], [2020]; [Rocha et al., 2018]). Mouse DRG neurons and reprogrammed human CMT2A motor neurons were transduced with adeno-Mito-DS-Red2 to visualize mitochondria; ex vivo sciatic nerve mitochondria were labeled with tetramethyl rhodamine ester (200 nM for 30 minutes at 37° C). Time-lapse imaging was carried out using confocal microscopy on a Nikon Eclipse Ti2 confocal microscope with 1 frame captured every 5 seconds for 180 frames (15 minutes). Kymographs and quantitative data were generated using the ImageJ plug-in: Velocity_Measurement_Tool.

[5] = system: Mfn2 T105M KI DRG neurons; experiment: Mitochondrial motility in DRG neurons from Mfn2 T105M KI mice; type: cell-based, mouse; details: 100 nM for 48 hours
Description: DRG neurons were isolated from ∼8-week-old Mfn2 T105M motor neuron transgenic mice, Mfn2 T105M KI mice, or Mfn1 fl/fl/Mfn2 fl/fl mice and cultured as described ([Dang et al., 2023]).
as §1

[6] = system: Mfn2 T105M knock-in mice; experiment: CMT2A phenotype reversal in Mfn2 T105M knock-in mice; type: in vivo, mouse
Description: The creation of mice with human CMT2A mutations MFN2 T105M and M376V CRISPR-engineered into the mouse Mfn2 gene has been reported, as was absence of a cardiac phenotype ([Franco et al., 2023]). Neuromuscular phenotyping was performed for the current studies (vide infra). Results of male and female mice were combined as there were no observed sex differences.
Mfn2 T105M knock-in mice underwent evaluation at 10-week intervals to establish basal phenotype progression. 8015 or 8015-P2 treatment studies were performed after final baseline evaluations at 50 weeks of age. 8015 (transgenic MFN2 T105M model) or 8015-P2 (Mfn2 T105M knock-in model) were administered at doses of 50 mg/kg by oral gave once daily in the morning. Repeat phenotyping was performed after 4 and 8 weeks of treatment (transgenic model) or 6 weeks of treatment (knock-in model), after which the mice were killed by anesthesia overdose and tissue specimens obtained for histologic and ultrastructural studies, as described ([Franco et al., 2020]).
Rotarod studies were performed on mice initially familiarized and trained on the Rotarod (Ugo Basile, Gemonio, VA, Italy;# 47650) at a speed of 5 rpm. For evaluation, the initial speed of 5 rpm accelerated to 40 rpm over 120 seconds and then maintained 40 rpm for a maximum of 180 seconds. For each trial, five tests were performed with at least 5 minutes rest between each test. No trends were observed from test 1 to test 5. In total, three trials were performed over sequential days to account for variabilities of the Rotarod test and between days. For each mouse, the latency (time to falling off) of replicate tests for each trial day were averaged, and results of the three independent trials were averaged to obtain a result for that condition (i.e., age, genotype, and/or drug treatment).
Neuroelectrophysiologic recordings of hindlimb compound muscle action potentials (CMAP) were performed with a Viasys Healthcare Nicolet Biomedical instrument (Middleton, WI, USA Cat:# OL060954) using Viking Quest version 11.2 software. Nerve stimulation used 3.9 mV pulses of 0.002 milliseconds duration administered through a needle electrode placed at the proximal sciatic nerve through a posterior lumbar approach. Muscle depolarization was monitored using a loop electrode placed around the mid distal hindlimb, corresponding to the greatest girth of the tibialis and gastrocnemius muscles.
An inverted grid suspension test was used to assess grip strength and coordination. Mice were placed on a grid, which was slowly inverted no higher than three feet above a padded surface; the time to falling off (latency) was recorded up to a maximum of 500 seconds. Each mouse underwent at least three independent studies on different days, and the longest latency time was used ([Aartsma-Rus and van Putten, 2014]). Obese mice (>150% of mean weight for that condition) were preemptively excluded.
Mechanical sensitivity was measured using the von Frey test ([Martinov et al., 2013]). Mice were placed in a plexiglass chamber with a mesh grid floor and allowed to accommodate for at least 20 minutes or until exploratory behavior had ceased. The response to mechanical stimulation of hind paws used IITC Supertips filaments and an electronic von Frey anesthesiometer (IITC Life Science, Inc. Woodland Hills CA, USA). Filaments were applied to the footpads with a gradual increase in pressure until paw withdrawal was evoked; the maximum applied force was recorded. Paws of the left and right foot were alternately measured, with at least six measurements taken per animal and the results averaged for each mouse.
Confocal imaging of gastrocnemius myocyte cross-sectional area (wheat germ agglutinin staining) and synapse density (α-bungarotoxin staining) was performed as described ([Franco et al., 2020]). […]

[7] = Enterohepatic recirculation study: oral PK without and with activated charcoal; type: in vivo, mouse; details: mice; for AUC(0-t) / half-life: mouse, plasma, po, 5 mg/kg; for half-life: read-out: Plasma t1/2 (converted)
Description: Enterohepatic recirculation (EHR) of 8015-P2 was tested by fasting mice overnight prior to administration of the compound (5 mg/kg) by oral gavage. 1 hour later, activated charcoal (2 g/kg) was administered by oral gavage to half of the mice; all mice were fed 2 hours after 8015-P2 dosing to induce gall bladder emptying. […] Areas under the concentration curves were calculated from the raw data; plasma half-times were estimated by linear regression of the second, slower elimination phase.

[8] = set-up: method as in earlier work; details: ref Piyachaturawat et al., 1983, Bhardwaj et al., 2002, Lee et al., 2005, McNamara et al.; cited from earlier work
[9] = ref Dang et al., 2021 (cpd 5b); cited from earlier work
[10] = p.o. 50 mg/kg, ref Dang et al., cited from earlier work
[11] = ref Dang et al., cited from earlier work
[12] = 50 mg/kg once daily by oral gavage for 6 weeks
[13] = 5 mg/kg oral, with vs. without charcoal
[14] = 5 mg/kg oral, activated charcoal by gavage 1 hour after dosing

Compound: O=C(NC1CC1CCCc1ccccc1)[C@H]1CC[C@H](O)CC1 (stereo partly shown) [Cpd 10]
Mitofusin activator activity [1]: functionally inactive

EC50 ([2]; Mus musculus, MEF, 95% confidence limits 439 - 863PM, n = 4, read-out: EC50 as a fusogenic factor (fusion of Mfn2-deficient mitochondria)): 623 pM | Waxing and waning of plasma levels [3]: not observed | Mitochondrial motility in DRG neuronal processes [5]: corrected | Decrease of AUClast by charcoal [7, 13]: 17% | Decrease of t1/2 by charcoal [7, 13]: 36% | Enterohepatic recirculation ([7]; oral): undergoes enterohepatic recirculation | AUC(0-t) [7, 14]: 739 ng·h/mL | half-life [7, 14]: 1.21 h | AUC(0-t) ([7]; 5 mg/kg oral, without charcoal): 887 ng·h/mL | half-life ([7]; 5 mg/kg oral, without charcoal): 1.88 h
Compound: O=C(NC1CC1CCCCc1ccccc1)C1CCC(O)CC1 (stereo not shown) [Compound 8015-P2]
Mitofusin activator potency (in words) [2]: subnanomolar potency | Comparative fusogenic potency of the two 8015 isomers ([2]; Mfn2-deficient mitochondria, n = 4 each): markedly more potent and effective than 8015-P1 | Fold greater fusogenic potency versus comparators ([2]; versus trans-MiM111 or CPR1-B / previously described mitofusin activators): ~10 fold | Mitochondrial motility in sciatic nerve axons, ex vivo [4]: corrected mitochondrial dysmotility | Motor neuron functional metrics (Rotarod latency, inverted grasp) [6, 12]: normalized | Neuroelectrophysiological abnormality (CMAP amplitude) [6, 12]: normalized | Sensory neuron metric (von Frey foot pad mechanical sensitivity) [6, 12]: normalized | Gastrocnemius myocyte cross-sectional area ([6]; 6 weeks of administration): reversed | Neuromuscular synapse density ([6]; 6 weeks of administration): reversed | Proportion of tibialis nerve neurons with small axonal areas (lowest quartile) ([6]; 6 weeks of administration): reversed

Compound: O=C(/C=C/C=C/c1ccc2c(c1)OCO2)N1CCCCC1 [piperine]
Mitofusin activation potency (in words) [1]: approximately the same potency as phenylhexanamide compounds | Cytotoxicity [8]: can be cytotoxic at higher concentrations

Compound: O=C(N[C@H]1CC[C@H](O)CC1)C1CC1CCCc1ccccc1 (stereo partly drawn) [CPR1-B, N-(trans-4-hydroxycyclohexyl)-2-(3-phenylpropyl)cyclopropane-1-carboxamide]
Aqueous solubility (pH 7.4) [9]: <10 uM | Bioavailability ([10]; 2021 (cpd 5b)): 59% | calc logP ([11]; 2021 (cpd 5b)): 3.09

Compound: O=C(CCCCCc1ccccc1)N[C@H]1CC[C@H](O)CC1 [trans-MiM111, N-(trans-4-hydroxycyclohexyl)-6-phenylhexanamide]
Bioavailability ([10]; 2020 (cpd 13b)): 61% | calc logP ([11]; 2020 (cpd 13b)): 3.22
